Measurements published in the kinase profiling compilation of Christmann-Franck et al. (2016).

Legend:
Test in all cases: KINOMEscan competition binding
Conditions in all cases: compound 10.0 µM
[1] = system: ABL1 (human), P00519 [T315I]
[2] = system: EGFR (human), P00533 [G719C; 746-750 del]
IKBKE (human) = IKBKE (human) (UniProt Q14164)
DDR2 (human) = DDR2 (human) (UniProt Q16832)
TESK1 (human) = TESK1 (human) (UniProt Q15569)
EPHA7 (human) = EPHA7 (human) (UniProt Q15375)
MAP3K12 (human) = MAP3K12 (human) (UniProt Q12852)
PAK4 (human) = PAK4 (human) (UniProt O96013)
Chain of PAK4 (human) (O96013 whole entry, looked up): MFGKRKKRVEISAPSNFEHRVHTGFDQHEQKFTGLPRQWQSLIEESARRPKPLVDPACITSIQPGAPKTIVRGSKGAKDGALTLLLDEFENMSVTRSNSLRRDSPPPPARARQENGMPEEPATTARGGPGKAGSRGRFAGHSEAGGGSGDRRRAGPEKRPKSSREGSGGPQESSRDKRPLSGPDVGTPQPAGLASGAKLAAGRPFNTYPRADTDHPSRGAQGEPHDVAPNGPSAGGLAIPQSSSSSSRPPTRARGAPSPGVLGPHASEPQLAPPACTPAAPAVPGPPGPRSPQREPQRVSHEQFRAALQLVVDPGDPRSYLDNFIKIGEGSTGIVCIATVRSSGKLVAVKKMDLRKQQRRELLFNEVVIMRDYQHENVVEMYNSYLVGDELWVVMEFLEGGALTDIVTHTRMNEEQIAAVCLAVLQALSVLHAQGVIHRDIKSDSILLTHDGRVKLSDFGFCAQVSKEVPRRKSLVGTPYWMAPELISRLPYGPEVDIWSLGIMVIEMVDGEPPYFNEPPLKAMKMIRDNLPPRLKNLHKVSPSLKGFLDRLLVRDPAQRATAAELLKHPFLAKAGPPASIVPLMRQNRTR

AKT3 (human) = AKT3 (human) (UniProt Q9Y243)
CDC42BPG (human) = CDC42BPG (human) (UniProt Q6DT37)
[3] = system: FGFR3 (human), P22607 [G697C]
PRKAA2 (human) = PRKAA2 (human) (UniProt P54646)
FGFR3 (human) = FGFR3 (human) (UniProt P22607)
EPHA6 (human) = EPHA6 (human) (UniProt Q9UF33)
EPHA1 (human) = EPHA1 (human) (UniProt P21709)
FGFR4 (human) = FGFR4 (human) (UniProt P22455)
RPS6KA5 KD1 (human) = RPS6KA5 KD1 (human) (UniProt O75582)
PTK2 (human) = PTK2 (human) (UniProt Q05397)
MAPK13 (human) = MAPK13 (human) (UniProt O15264)
MAP3K10 (human) = MAP3K10 (human) (UniProt Q02779)
MAPK12 (human) = MAPK12 (human) (UniProt P53778)
MARK4 (human) = MARK4 (human) (UniProt Q96L34)
ABL2 (human) = ABL2 (human) (UniProt P42684)
ALK (human) = ALK (human) (UniProt Q9UM73)
NUAK1 (human) = NUAK1 (human) (UniProt O60285)
Chain of NUAK1 (human) (O60285 whole entry, looked up): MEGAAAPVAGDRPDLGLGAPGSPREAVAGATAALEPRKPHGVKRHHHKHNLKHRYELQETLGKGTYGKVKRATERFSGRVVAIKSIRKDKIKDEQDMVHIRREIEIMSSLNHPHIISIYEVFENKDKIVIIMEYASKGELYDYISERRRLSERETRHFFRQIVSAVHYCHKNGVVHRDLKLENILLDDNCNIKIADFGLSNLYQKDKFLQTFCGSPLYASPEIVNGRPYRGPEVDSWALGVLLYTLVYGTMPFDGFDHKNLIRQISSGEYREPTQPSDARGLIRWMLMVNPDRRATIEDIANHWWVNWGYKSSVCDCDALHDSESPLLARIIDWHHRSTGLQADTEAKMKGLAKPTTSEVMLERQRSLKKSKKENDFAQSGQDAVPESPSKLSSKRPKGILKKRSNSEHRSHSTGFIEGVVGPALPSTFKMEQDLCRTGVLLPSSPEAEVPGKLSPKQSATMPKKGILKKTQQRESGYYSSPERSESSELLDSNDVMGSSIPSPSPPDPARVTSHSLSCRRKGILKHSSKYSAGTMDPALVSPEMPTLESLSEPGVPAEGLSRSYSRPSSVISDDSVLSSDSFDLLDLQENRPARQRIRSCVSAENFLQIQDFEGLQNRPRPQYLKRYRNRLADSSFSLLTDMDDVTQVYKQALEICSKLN

NLK (human) = NLK (human) (UniProt Q9UBE8)
Chain of NLK (human) (Q9UBE8 whole entry, looked up): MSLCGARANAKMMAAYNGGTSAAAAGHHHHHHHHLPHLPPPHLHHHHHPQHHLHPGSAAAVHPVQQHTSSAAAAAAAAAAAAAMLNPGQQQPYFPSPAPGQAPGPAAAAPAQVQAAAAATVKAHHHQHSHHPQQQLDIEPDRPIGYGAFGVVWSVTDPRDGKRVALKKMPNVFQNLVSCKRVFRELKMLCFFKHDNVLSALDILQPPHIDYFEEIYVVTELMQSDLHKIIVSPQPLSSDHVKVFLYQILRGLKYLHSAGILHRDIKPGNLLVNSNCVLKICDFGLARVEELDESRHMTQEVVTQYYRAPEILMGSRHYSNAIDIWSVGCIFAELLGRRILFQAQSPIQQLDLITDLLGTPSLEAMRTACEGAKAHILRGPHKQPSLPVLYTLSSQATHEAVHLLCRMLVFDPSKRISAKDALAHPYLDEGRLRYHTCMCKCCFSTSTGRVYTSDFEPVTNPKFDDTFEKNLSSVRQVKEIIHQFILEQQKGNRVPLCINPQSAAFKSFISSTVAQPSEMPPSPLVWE

CDK15 (human) = CDK15 (human) (UniProt Q96Q40)
Chain of CDK15 (human) (Q96Q40 whole entry, looked up): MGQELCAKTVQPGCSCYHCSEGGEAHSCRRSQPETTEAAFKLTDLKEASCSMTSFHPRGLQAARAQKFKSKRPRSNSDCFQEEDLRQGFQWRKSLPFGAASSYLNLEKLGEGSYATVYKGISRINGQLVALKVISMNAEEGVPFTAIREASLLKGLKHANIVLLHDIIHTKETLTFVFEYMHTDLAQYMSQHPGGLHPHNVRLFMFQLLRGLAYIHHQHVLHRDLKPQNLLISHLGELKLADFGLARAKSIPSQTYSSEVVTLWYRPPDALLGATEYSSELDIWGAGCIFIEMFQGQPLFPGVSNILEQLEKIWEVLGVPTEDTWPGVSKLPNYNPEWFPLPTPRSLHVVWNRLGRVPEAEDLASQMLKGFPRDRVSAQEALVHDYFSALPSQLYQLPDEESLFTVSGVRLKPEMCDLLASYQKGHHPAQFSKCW

PAK1 (human) = PAK1 (human) (UniProt Q13153)
Chain of PAK1 (human) (Q13153 whole entry, looked up): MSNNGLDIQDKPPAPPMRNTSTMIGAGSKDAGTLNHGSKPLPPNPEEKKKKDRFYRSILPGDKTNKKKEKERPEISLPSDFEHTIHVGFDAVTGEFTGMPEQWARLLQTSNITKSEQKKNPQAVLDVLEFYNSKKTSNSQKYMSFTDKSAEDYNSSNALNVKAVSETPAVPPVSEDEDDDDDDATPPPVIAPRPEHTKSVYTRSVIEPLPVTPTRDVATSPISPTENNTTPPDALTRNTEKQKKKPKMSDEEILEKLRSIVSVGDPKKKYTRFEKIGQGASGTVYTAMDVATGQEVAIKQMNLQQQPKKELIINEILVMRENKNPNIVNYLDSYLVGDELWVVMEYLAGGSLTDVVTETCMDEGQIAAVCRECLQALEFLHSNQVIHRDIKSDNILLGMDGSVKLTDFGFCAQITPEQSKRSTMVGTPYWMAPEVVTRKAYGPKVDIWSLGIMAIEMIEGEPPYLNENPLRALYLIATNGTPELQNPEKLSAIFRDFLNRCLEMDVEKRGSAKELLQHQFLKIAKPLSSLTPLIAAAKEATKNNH

EPHA2 (human) = EPHA2 (human) (UniProt P29317)
CDK14 (human) = CDK14 (human) (UniProt O94921)
Chain of CDK14 (human) (O94921 whole entry, looked up): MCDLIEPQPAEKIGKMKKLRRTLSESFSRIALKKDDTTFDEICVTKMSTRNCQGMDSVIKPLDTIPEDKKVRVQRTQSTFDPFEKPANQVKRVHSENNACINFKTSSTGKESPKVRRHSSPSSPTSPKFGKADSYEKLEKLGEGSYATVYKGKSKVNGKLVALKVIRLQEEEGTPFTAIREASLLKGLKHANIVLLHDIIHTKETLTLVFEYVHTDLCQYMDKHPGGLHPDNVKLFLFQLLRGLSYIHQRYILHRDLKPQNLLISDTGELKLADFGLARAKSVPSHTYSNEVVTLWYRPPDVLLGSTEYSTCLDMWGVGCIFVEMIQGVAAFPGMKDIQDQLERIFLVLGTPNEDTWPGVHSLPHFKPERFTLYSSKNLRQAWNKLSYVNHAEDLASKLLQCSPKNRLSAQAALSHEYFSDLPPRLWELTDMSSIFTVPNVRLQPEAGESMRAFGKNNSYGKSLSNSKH

FES (human) = FES (human) (UniProt P07332)
[4] = system: ABL1 (human), P00519 [E255K]
TLK2 (human) = TLK2 (human) (UniProt Q86UE8)
Chain of TLK2 (human) (Q86UE8 whole entry, looked up): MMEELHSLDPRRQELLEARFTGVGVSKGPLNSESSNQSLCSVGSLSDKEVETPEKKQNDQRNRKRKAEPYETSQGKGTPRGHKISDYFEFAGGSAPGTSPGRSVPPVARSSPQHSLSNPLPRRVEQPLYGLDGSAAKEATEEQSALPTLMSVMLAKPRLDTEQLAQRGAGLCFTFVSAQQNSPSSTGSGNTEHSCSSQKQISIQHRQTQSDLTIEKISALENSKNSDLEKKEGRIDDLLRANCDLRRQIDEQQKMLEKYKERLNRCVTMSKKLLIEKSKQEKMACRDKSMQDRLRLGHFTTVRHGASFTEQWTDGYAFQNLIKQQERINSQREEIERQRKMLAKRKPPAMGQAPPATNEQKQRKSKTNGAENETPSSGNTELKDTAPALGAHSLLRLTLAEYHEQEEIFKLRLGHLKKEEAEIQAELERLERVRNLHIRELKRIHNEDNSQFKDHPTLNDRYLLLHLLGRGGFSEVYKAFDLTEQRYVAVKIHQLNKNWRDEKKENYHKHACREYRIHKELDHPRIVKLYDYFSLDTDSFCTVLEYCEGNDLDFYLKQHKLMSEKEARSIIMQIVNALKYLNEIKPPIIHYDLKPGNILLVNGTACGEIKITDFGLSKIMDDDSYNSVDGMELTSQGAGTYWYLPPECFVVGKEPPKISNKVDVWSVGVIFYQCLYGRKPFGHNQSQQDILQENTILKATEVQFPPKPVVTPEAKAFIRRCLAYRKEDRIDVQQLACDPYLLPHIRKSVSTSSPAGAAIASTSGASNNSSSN

DCLK1 (human) = DCLK1 (human) (UniProt O15075)
LCK (human) = LCK (human) (UniProt P06239)
MAPK1 (human) = MAPK1 (human) (UniProt P28482)
Chain of MAPK1 (human) (P28482 whole entry, looked up): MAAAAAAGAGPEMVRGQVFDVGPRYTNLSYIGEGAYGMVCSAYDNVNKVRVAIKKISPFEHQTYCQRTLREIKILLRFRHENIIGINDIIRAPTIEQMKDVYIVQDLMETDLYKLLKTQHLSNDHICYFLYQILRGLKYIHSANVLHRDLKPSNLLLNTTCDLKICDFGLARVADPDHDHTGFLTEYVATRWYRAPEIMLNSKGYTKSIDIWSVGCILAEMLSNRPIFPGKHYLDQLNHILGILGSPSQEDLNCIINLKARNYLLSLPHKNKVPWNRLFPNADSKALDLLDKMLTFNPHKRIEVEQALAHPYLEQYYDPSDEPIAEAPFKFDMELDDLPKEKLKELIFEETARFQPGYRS

CDC42BPB (human) = CDC42BPB (human) (UniProt Q9Y5S2)
AKT1 (human) = AKT1 (human) (UniProt P31749)
ITK (human) = ITK (human) (UniProt Q08881)
EPHB3 (human) = EPHB3 (human) (UniProt P54753)
STK25 (human) = STK25 (human) (UniProt O00506)
CAMK2B (human) = CAMK2B (human) (UniProt Q13554)
Chain of CAMK2B (human) (Q13554 whole entry, looked up): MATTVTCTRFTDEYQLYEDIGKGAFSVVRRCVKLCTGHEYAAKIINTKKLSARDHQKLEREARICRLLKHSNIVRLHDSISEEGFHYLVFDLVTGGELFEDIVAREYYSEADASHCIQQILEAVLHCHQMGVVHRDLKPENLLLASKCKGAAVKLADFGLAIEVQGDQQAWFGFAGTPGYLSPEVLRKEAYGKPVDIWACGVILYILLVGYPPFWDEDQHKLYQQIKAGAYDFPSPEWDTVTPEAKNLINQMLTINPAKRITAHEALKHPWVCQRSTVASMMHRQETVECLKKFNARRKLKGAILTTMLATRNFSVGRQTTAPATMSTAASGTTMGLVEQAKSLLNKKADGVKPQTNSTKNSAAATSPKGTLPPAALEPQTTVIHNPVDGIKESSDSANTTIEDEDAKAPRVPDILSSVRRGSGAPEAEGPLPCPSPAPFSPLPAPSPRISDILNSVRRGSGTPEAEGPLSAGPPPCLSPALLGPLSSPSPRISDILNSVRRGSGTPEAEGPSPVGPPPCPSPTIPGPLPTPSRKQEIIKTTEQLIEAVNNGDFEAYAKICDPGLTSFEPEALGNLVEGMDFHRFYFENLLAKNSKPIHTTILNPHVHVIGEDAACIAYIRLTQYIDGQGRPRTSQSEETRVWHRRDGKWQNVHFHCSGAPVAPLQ

Compound: CS(=O)(=O)Nc1ccc(-c2ncc(/C=C3\SC(=N)NC3=O)s2)cc1
- kinase still bound, per cent of control [1]: 4.6%

Compound: Nc1cccc(-c2cc(/C=C3\SC(=O)NC3=O)c[nH]c2=O)c1
- kinase still bound, per cent of control [2]: 30%
- kinase still bound, per cent of control (IKBKE (human)): 29%
- kinase still bound, per cent of control (DDR2 (human)): 33%

Compound: CN1CCN(c2ccc(C(=O)Nc3ncc4c(n3)N(C)c3ccccc3C(=O)N4C)cc2)CC1
- kinase still bound, per cent of control (TESK1 (human)): 91%
- kinase still bound, per cent of control (EPHA7 (human)): 100%
- kinase still bound, per cent of control (MAP3K12 (human)): 87%
- kinase still bound, per cent of control (PAK4 (human)): 100%
- kinase still bound, per cent of control (AKT3 (human)): 90%
- kinase still bound, per cent of control [2]: 100%
- kinase still bound, per cent of control (CDC42BPG (human)): 100%
- kinase still bound, per cent of control [3]: 98%
- kinase still bound, per cent of control (IKBKE (human)): 100%
- kinase still bound, per cent of control (PRKAA2 (human)): 100%
- kinase still bound, per cent of control (FGFR3 (human)): 100%
- kinase still bound, per cent of control (EPHA6 (human)): 100%
- kinase still bound, per cent of control (DDR2 (human)): 100%
- kinase still bound, per cent of control (EPHA1 (human)): 100%
- kinase still bound, per cent of control [1]: 85%
- kinase still bound, per cent of control (FGFR4 (human)): 100%
- kinase still bound, per cent of control (RPS6KA5 KD1 (human)): 87%
- kinase still bound, per cent of control (PTK2 (human)): 100%
- kinase still bound, per cent of control (MAPK13 (human)): 90%
- kinase still bound, per cent of control (MAP3K10 (human)): 99%
- kinase still bound, per cent of control (MAPK12 (human)): 98%
- kinase still bound, per cent of control (MARK4 (human)): 91%
- kinase still bound, per cent of control (ABL2 (human)): 100%
- kinase still bound, per cent of control (ALK (human)): 100%
- kinase still bound, per cent of control (NUAK1 (human)): 90%
- kinase still bound, per cent of control (NLK (human)): 100%
- kinase still bound, per cent of control (CDK15 (human)): 88%
- kinase still bound, per cent of control (PAK1 (human)): 99%
- kinase still bound, per cent of control (EPHA2 (human)): 100%
- kinase still bound, per cent of control (CDK14 (human)): 100%
- kinase still bound, per cent of control (FES (human)): 100%
- kinase still bound, per cent of control [4]: 100%
- kinase still bound, per cent of control (TLK2 (human)): 100%
- kinase still bound, per cent of control (DCLK1 (human)): 24%
- kinase still bound, per cent of control (LCK (human)): 100%
- kinase still bound, per cent of control (MAPK1 (human)): 100%
- kinase still bound, per cent of control (CDC42BPB (human)): 98%
- kinase still bound, per cent of control (AKT1 (human)): 100%
- kinase still bound, per cent of control (ITK (human)): 100%
- kinase still bound, per cent of control (EPHB3 (human)): 100%
- kinase still bound, per cent of control (STK25 (human)): 100%
- kinase still bound, per cent of control (CAMK2B (human)): 98%

Compound: O=C1NC(=O)/C(=C/c2c[nH]c(=O)c(-c3ccc(N4CCNCC4)nc3)c2)S1
- kinase still bound, per cent of control (TESK1 (human)): 100%
- kinase still bound, per cent of control (EPHA7 (human)): 97%
- kinase still bound, per cent of control (MAP3K12 (human)): 76%
- kinase still bound, per cent of control (PAK4 (human)): 98%
- kinase still bound, per cent of control (AKT3 (human)): 98%
- kinase still bound, per cent of control [2]: 95%
- kinase still bound, per cent of control (CDC42BPG (human)): 88%
- kinase still bound, per cent of control [3]: 100%
- kinase still bound, per cent of control (IKBKE (human)): 62%
- kinase still bound, per cent of control (PRKAA2 (human)): 100%
- kinase still bound, per cent of control (FGFR3 (human)): 84%
- kinase still bound, per cent of control (EPHA6 (human)): 97%
- kinase still bound, per cent of control (DDR2 (human)): 100%
- kinase still bound, per cent of control (EPHA1 (human)): 100%
- kinase still bound, per cent of control [1]: 57%
- kinase still bound, per cent of control (FGFR4 (human)): 93%
- kinase still bound, per cent of control (RPS6KA5 KD1 (human)): 100%
- kinase still bound, per cent of control (PTK2 (human)): 79%
- kinase still bound, per cent of control (MAPK13 (human)): 100%
- kinase still bound, per cent of control (MAP3K10 (human)): 100%
- kinase still bound, per cent of control (MAPK12 (human)): 60%
- kinase still bound, per cent of control (MARK4 (human)): 100%
- kinase still bound, per cent of control (ABL2 (human)): 78%
- kinase still bound, per cent of control (ALK (human)): 54%
- kinase still bound, per cent of control (NUAK1 (human)): 77%
- kinase still bound, per cent of control (NLK (human)): 97%
- kinase still bound, per cent of control (CDK15 (human)): 50%
- kinase still bound, per cent of control (PAK1 (human)): 90%
- kinase still bound, per cent of control (EPHA2 (human)): 100%
- kinase still bound, per cent of control (CDK14 (human)): 73%
- kinase still bound, per cent of control (FES (human)): 100%
- kinase still bound, per cent of control [4]: 94%
- kinase still bound, per cent of control (TLK2 (human)): 99%
- kinase still bound, per cent of control (DCLK1 (human)): 73%
- kinase still bound, per cent of control (LCK (human)): 100%
- kinase still bound, per cent of control (MAPK1 (human)): 97%
- kinase still bound, per cent of control (CDC42BPB (human)): 100%
- kinase still bound, per cent of control (AKT1 (human)): 100%
- kinase still bound, per cent of control (ITK (human)): 89%
- kinase still bound, per cent of control (EPHB3 (human)): 91%
- kinase still bound, per cent of control (STK25 (human)): 77%
- kinase still bound, per cent of control (CAMK2B (human)): 47%

Compound: CN1C(=O)[C@H]2CCC[C@H]2N(C2CCCC2)c2nc(Nc3ccc(C(N)=O)cc3)ncc21
- kinase still bound, per cent of control (NLK (human)): 16%
- kinase still bound, per cent of control (DCLK1 (human)): 5.8%

Compound: O=C1NC(=S)S/C1=C\c1ccc(-c2cncc3ccccc23)o1
- kinase still bound, per cent of control (PTK2 (human)): 28%
- kinase still bound, per cent of control (ALK (human)): 30%
- kinase still bound, per cent of control (TLK2 (human)): 26%
- kinase still bound, per cent of control (CDC42BPB (human)): 30%
- kinase still bound, per cent of control (STK25 (human)): 20%
- kinase still bound, per cent of control (CAMK2B (human)): 22%

Compound: N=C1NC(=O)/C(=C/c2ccc(-c3ccc(C(N)=O)cc3O)o2)S1
- kinase still bound, per cent of control (CDK15 (human)): 13%
- kinase still bound, per cent of control (CDK14 (human)): 18%

Compound: N=C1NC(=O)/C(=C/c2ccc(-c3ccccc3O)o2)S1
- kinase still bound, per cent of control (CDK15 (human)): 34%

Compound: N=C1NC(=O)/C(=C/c2ccc(-c3ccc(F)cc3O)o2)S1
- kinase still bound, per cent of control (CDK15 (human)): 9.4%
- kinase still bound, per cent of control (CDK14 (human)): 19%

Compound: CS(=O)(=O)Nc1ccc(-c2cncc(/C=C3\SC(=N)NC3=O)c2)cc1
- kinase still bound, per cent of control (NLK (human)): 24%
- kinase still bound, per cent of control (PAK1 (human)): 9.4%

Compound: N=C1NC(=O)/C(=C/c2ccc(-c3cncc4ccccc34)o2)S1
- kinase still bound, per cent of control (PAK4 (human)): 18%
- kinase still bound, per cent of control (PRKAA2 (human)): 33%
- kinase still bound, per cent of control (TLK2 (human)): 23%
- kinase still bound, per cent of control (STK25 (human)): 18%
- kinase still bound, per cent of control (CAMK2B (human)): 17%

Compound: N=C1NC(=O)/C(=C/c2ccc(-c3csc4ccccc34)o2)S1
- kinase still bound, per cent of control (ALK (human)): 32%
- kinase still bound, per cent of control (NUAK1 (human)): 31%
- kinase still bound, per cent of control (MAPK1 (human)): 29%
- kinase still bound, per cent of control (CDC42BPB (human)): 32%
